Results on seven compounds are retold here after US10253081B2, “Glucagon analogues” (Zealand Pharma A/S, priority 2012, dated 2019).

Each structure is given as a SMILES string. pEC50: −log10 of the molar value. Several values for one entry are separate records, joined by “and”; a condition that tells them apart may be missing. Identical values can stand only once. *1 amine or outer side, *2 acyl side, *3 side chain or, on linkers, in order; H or OH if unused. Where a SMILES comes first, the peptide text is derived from it. Side-chain parts run from the residue outwards. [ ]: non-standard residue; d: D form. The star is where a group is joined. γGlu = O=C(O)[C@H](CCC(=O)[*:2])N[*:1]; Palmitoyl = CCCCCCCCCCCCCCCC(=O)*; Aib = CC(C)(N)C(=O)O

Experiment [1] deals with T1, endogenous GLP-1 receptors (Mus musculus, UniProt O35659).
T1 construct: Agonistic activity of the test compounds on endogenous GLP-1 receptors; endogenous in cells
T1 sequence (O35659 22-463): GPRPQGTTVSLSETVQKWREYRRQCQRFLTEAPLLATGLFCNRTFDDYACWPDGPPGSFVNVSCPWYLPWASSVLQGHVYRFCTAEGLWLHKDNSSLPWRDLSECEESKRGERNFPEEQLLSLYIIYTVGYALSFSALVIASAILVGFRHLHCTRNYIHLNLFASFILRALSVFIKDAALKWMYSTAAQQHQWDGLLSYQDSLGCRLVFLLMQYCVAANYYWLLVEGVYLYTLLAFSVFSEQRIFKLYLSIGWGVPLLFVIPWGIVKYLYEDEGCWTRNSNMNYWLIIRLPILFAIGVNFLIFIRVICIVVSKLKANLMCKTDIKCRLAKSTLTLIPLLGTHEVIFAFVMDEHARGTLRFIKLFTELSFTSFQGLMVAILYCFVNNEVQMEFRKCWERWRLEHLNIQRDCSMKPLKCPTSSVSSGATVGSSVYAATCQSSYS
Kind of experiment: Agonistic activity on endogenous GLP-1 receptor (cAMP, murine insulinoma cell line). The class given is cell-based. To be noted: intracellular cAMP, 15 minutes at 26° C.; read-out: EC50 GLP-1R (murine insulinoma cells). The essentials:
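Murine insulinoma cells were exposed 15 min at 26° C in KRBH with 0.1% DMSO to compound or GLP-1 ([…]), then cAMP was measured by AlphaScreen against a standard curve, in quadruplicate. pEC50 came from curve fits; % CTL was normalised to the maximal GLP-1 cAMP response.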

The target in experiment [2] is T2, endogenous glucagon receptor (Rattus norvegicus, UniProt P30082).
T2 construct: Agonistic activity of the test compounds on endogenous glucagon receptor; endogenous in cells; host or cells: primary rat hepatocytes
Description: Agonistic activity on endogenous glucagon receptor (glycogen synthesis rate in primary rat hepatocytes). To be noted: inhibition of glycogen synthesis rate, 3 hours, read-out: EC50 GLP-1R Rat hepat. The class given is cell-based. The essentials: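 Primary rat hepatocytes (40,000 cells/well, cultured 24 h) incubated 3 h with compound in KRBH buffer with 0.1% BSA, 22.5 mM glucose and D-[U14C]glucose. 14C incorporated into precipitated glycogen counted, background-subtracted and expressed as % of 0.1% DMSO vehicle (100% CTL). pEC50 from cpm versus log concentration; agonism lowers glycogen synthesis.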

T2 sequence (P30082 27-485): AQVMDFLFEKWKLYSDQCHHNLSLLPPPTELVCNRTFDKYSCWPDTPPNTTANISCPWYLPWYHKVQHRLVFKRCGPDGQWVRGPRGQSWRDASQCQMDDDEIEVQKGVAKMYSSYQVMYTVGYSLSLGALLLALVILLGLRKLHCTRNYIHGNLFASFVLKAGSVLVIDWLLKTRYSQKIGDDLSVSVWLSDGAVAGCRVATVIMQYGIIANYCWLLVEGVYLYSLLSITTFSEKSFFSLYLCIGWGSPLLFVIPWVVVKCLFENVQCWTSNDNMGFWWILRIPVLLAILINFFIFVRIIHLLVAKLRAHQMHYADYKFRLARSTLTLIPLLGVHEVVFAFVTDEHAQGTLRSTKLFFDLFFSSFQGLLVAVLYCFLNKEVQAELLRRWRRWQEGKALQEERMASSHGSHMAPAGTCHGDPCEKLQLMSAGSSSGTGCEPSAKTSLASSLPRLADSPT

Take `CCCCCCCCCCCCCCCC(=O)N[C@@H](CCC(=O)NCCCC[C@H](NC(=O)[C@H](CO)NC(=O)[C@H](CC(=O)O)NC(=O)[C@H](CC(C)C)NC(=O)[C@H](Cc1ccc(O)cc1)NC(=O)[C@H](CCCCN)NC(=O)[C@H](CO)NC(=O)[C@H](Cc1ccc(O)cc1)NC(=O)[C@H](CC(=O)O)NC(=O)[C@H](CO)NC(=O)[C@@H](NC(=O)[C@H](Cc1ccccc1)NC(=O)[C@@H](NC(=O)CNC(=O)[C@H](CCC(N)=O)NC(=O)C(C)(C)NC(=O)[C@@H](N)Cc1c[nH]cn1)[C@@H](C)O)[C@@H](C)O)C(=O)N[C@@H](C)C(=O)N[C@@H](C)C(=O)N[C@@H](Cc1c[nH]cn1)C(=O)N[C@@H](CC(=O)O)C(=O)N[C@@H](Cc1ccccc1)C(=O)N[C@H](C(=O)N[C@@H](CCC(=O)O)C(=O)N[C@@H](Cc1c[nH]c2ccccc12)C(=O)N[C@@H](CC(C)C)C(=O)N[C@@H](CC(C)C)C(=O)N[C@@H](CO)C(=O)O)C(C)C)C(=O)O` [Compound 1, H-H-Aib-QGTFTSDYSKYLDS-K(Hexadecanoyl-isoGlu)-AAHDFVEWLLS-OH] (H-H[Aib]QGTFTSDYSKYLDSK([γGlu-Palmitoyl])AAHDFVEWLLS-OH): the pEC50 (usually the negative decadic logarithm of the EC50, by convention in mol/L) in experiment [1] was 8.83; in experiment [2], 9.89 and 10.70.
As for `CCCCCCCCCCCCCCCC(=O)N[C@@H](CCC(=O)NCCCC[C@H](NC(=O)[C@H](CO)NC(=O)[C@H](CC(=O)O)NC(=O)[C@H](CC(C)C)NC(=O)[C@H](Cc1ccc(O)cc1)NC(=O)[C@H](CCCCN)NC(=O)[C@H](CO)NC(=O)[C@H](Cc1ccc(O)cc1)NC(=O)[C@H](CC(=O)O)NC(=O)[C@H](CO)NC(=O)[C@@H](NC(=O)[C@H](Cc1ccccc1)NC(=O)[C@@H](NC(=O)CNC(=O)[C@H](CCC(N)=O)NC(=O)[C@H](CO)NC(=O)[C@@H](N)Cc1c[nH]cn1)[C@@H](C)O)[C@@H](C)O)C(=O)N[C@@H](C)C(=O)N[C@@H](C)C(=O)N[C@@H](Cc1c[nH]cn1)C(=O)N[C@@H](CC(=O)O)C(=O)N[C@@H](Cc1ccccc1)C(=O)N[C@H](C(=O)N[C@@H](CCC(=O)O)C(=O)N[C@@H](Cc1c[nH]c2ccccc12)C(=O)N[C@@H](CC(C)C)C(=O)N[C@@H](CC(C)C)C(=O)N[C@@H](CCCNC(=N)N)C(=O)N[C@@H](C)C(=O)O)C(C)C)C(=O)O` [Compound 3, H-HSQGTFTSDYSKYLDS-K(Hexadecanoyl-isoGlu)-AAHDFVEWLLRA-OH] (H-HSQGTFTSDYSKYLDSK([γGlu-Palmitoyl])AAHDFVEWLLRA-OH), the values for the pEC50 in experiment [1] and in experiment [2] were 8.97 and 9.80, respectively.
Turning to `CCCCCCCCCCCCCCCC(=O)N[C@@H](CCC(=O)NCCCC[C@H](NC(=O)[C@H](CCC(=O)O)NC(=O)[C@H](CC(=O)O)NC(=O)[C@H](CC(C)C)NC(=O)[C@H](Cc1ccc(O)cc1)NC(=O)[C@H](CCCCN)NC(=O)[C@H](CO)NC(=O)[C@H](Cc1ccc(O)cc1)NC(=O)[C@H](CC(=O)O)NC(=O)[C@H](CO)NC(=O)[C@@H](NC(=O)[C@H](Cc1ccccc1)NC(=O)[C@@H](NC(=O)CNC(=O)[C@H](CCC(N)=O)NC(=O)C(C)(C)NC(=O)[C@@H](N)Cc1c[nH]cn1)[C@@H](C)O)[C@@H](C)O)C(=O)N[C@@H](C)C(=O)N[C@@H](C)C(=O)N[C@@H](CCCCN)C(=O)N[C@@H](CC(=O)O)C(=O)N[C@@H](Cc1ccccc1)C(=O)N[C@H](C(=O)N[C@@H](CCC(=O)O)C(=O)N[C@@H](Cc1c[nH]c2ccccc12)C(=O)N[C@@H](CC(C)C)C(=O)N[C@@H](CC(C)C)C(=O)N[C@@H](CO)C(=O)N[C@@H](C)C(N)=O)[C@@H](C)CC)C(=O)O` [Compound 4, H-H-Aib-QGTFTSDYSKYLDE-K(Hexadecanoyl-isoGlu)-AAKDFIEWLLSA-NH2] (H-H[Aib]QGTFTSDYSKYLDEK([γGlu-Palmitoyl])AAKDFIEWLLSA-NH2), the pEC50 is 9.02 in experiment [1] and 9.46 in experiment [2].
In the case of `CCCCCCCCCCCCCCCC(=O)N[C@@H](CCC(=O)NCCCC[C@H](NC(=O)[C@H](CO)NC(=O)[C@H](CC(=O)O)NC(=O)[C@H](CC(C)C)NC(=O)[C@H](Cc1ccc(O)cc1)NC(=O)[C@H](CCCCN)NC(=O)[C@H](CO)NC(=O)[C@H](Cc1ccc(O)cc1)NC(=O)[C@H](CC(=O)O)NC(=O)[C@H](CO)NC(=O)[C@@H](NC(=O)[C@H](Cc1ccccc1)NC(=O)[C@@H](NC(=O)CNC(=O)[C@H](CCC(N)=O)NC(=O)C(C)(C)NC(=O)[C@@H](N)Cc1c[nH]cn1)[C@@H](C)O)[C@@H](C)O)C(=O)N[C@@H](C)C(=O)N[C@@H](C)C(=O)N[C@@H](Cc1c[nH]cn1)C(=O)N[C@@H](CC(=O)O)C(=O)N[C@@H](Cc1ccccc1)C(=O)N[C@H](C(=O)N[C@@H](CCC(=O)O)C(=O)N[C@@H](Cc1c[nH]c2ccccc12)C(=O)N[C@@H](CC(C)C)C(=O)N[C@@H](CCC(=O)O)C(=O)N[C@@H](CO)C(=O)N[C@@H](C)C(N)=O)C(C)C)C(=O)O` [Compound 5, H-H-Aib-QGTFTSDYSKYLDS-K(Hexadecanoyl-isoGlu)-AAHDFVEWLESA-NH2] (H-H[Aib]QGTFTSDYSKYLDSK([γGlu-Palmitoyl])AAHDFVEWLESA-NH2), the negative-log EC50 (pEC50) was 9.27 in experiment [1] and 10.52 in experiment [2].
As to `CCCCCCCCCCCCCCCC(=O)N[C@@H](CCC(=O)NCCCC[C@H](NC(=O)[C@H](CO)NC(=O)[C@H](CC(=O)O)NC(=O)[C@H](CC(C)C)NC(=O)[C@H](Cc1ccc(O)cc1)NC(=O)[C@H](CCCNC(=N)N)NC(=O)[C@H](CO)NC(=O)[C@H](Cc1ccc(O)cc1)NC(=O)[C@H](CC(=O)O)NC(=O)[C@H](CO)NC(=O)[C@@H](NC(=O)[C@H](Cc1ccccc1)NC(=O)[C@@H](NC(=O)CNC(=O)[C@H](CCC(N)=O)NC(=O)[C@H](CO)NC(=O)[C@@H](N)Cc1c[nH]cn1)[C@@H](C)O)[C@@H](C)O)C(=O)N[C@@H](C)C(=O)N[C@@H](C)C(=O)N[C@@H](CCC(=O)O)C(=O)N[C@@H](CC(=O)O)C(=O)N[C@@H](Cc1ccccc1)C(=O)N[C@H](C(=O)N[C@@H](CCC(=O)O)C(=O)N[C@@H](Cc1c[nH]c2ccccc12)C(=O)N[C@@H](CC(C)C)C(=O)N[C@@H](CC(C)C)C(=O)N[C@@H](CCCNC(=N)N)C(=O)N[C@@H](C)C(N)=O)C(C)C)C(=O)O` [Compound 6, H-HSQGTFTSDYSRYLDS-K(Hexadecanoyl-isoGlu)-AAEDFVEWLLRA-NH2] (H-HSQGTFTSDYSRYLDSK([γGlu-Palmitoyl])AAEDFVEWLLRA-NH2), the pEC50 in experiment [1] is 8.94; in experiment [2] it was 8.54.
Turning to `CCCCCCCCCCCCCCCC(=O)N[C@@H](CCC(=O)NCCCC[C@H](NC(=O)[C@H](CO)NC(=O)[C@H](CC(=O)O)NC(=O)[C@H](CC(C)C)NC(=O)[C@H](Cc1ccc(O)cc1)NC(=O)[C@H](CCCCN)NC(=O)[C@H](CO)NC(=O)[C@H](Cc1ccc(O)cc1)NC(=O)[C@H](CC(=O)O)NC(=O)[C@H](CO)NC(=O)[C@@H](NC(=O)[C@H](Cc1ccccc1)NC(=O)[C@@H](NC(=O)CNC(=O)[C@H](CCC(N)=O)NC(=O)[C@H](CO)NC(=O)[C@@H](N)Cc1c[nH]cn1)[C@@H](C)O)[C@@H](C)O)C(=O)N[C@@H](C)C(=O)N[C@@H](C)C(=O)N[C@@H](Cc1c[nH]cn1)C(=O)N[C@@H](CC(=O)O)C(=O)N[C@@H](Cc1ccccc1)C(=O)N[C@H](C(=O)N[C@@H](CCC(=O)O)C(=O)N[C@@H](Cc1c[nH]c2ccccc12)C(=O)N[C@@H](CC(C)C)C(=O)N[C@@H](CC(C)C)C(=O)N[C@@H](CO)C(N)=O)C(C)C)C(=O)O` [Compound 8, H-HSQGTFTSDYSKYLDS-K(Hexadecanoyl-isoGlu)-AAHDFVEWLLS-NH2] (H-HSQGTFTSDYSKYLDSK([γGlu-Palmitoyl])AAHDFVEWLLS-NH2), the pEC50 in experiment [1] was 9.02; in experiment [2], 8.96.
For the compound `CCCCCCCCCCCCCCCC(=O)N[C@@H](CCC(=O)NCCCC[C@H](NC(=O)[C@H](CO)NC(=O)[C@H](CC(=O)O)NC(=O)[C@H](CC(C)C)NC(=O)[C@H](Cc1ccc(O)cc1)NC(=O)[C@H](CCCCN)NC(=O)[C@H](CO)NC(=O)[C@H](Cc1ccc(O)cc1)NC(=O)[C@H](CC(=O)O)NC(=O)[C@H](CO)NC(=O)[C@@H](NC(=O)[C@H](Cc1ccccc1)NC(=O)[C@@H](NC(=O)CNC(=O)[C@H](CCC(N)=O)NC(=O)[C@H](CO)NC(=O)[C@@H](N)Cc1c[nH]cn1)[C@@H](C)O)[C@@H](C)O)C(=O)N[C@@H](C)C(=O)N[C@@H](C)C(=O)N[C@@H](Cc1c[nH]cn1)C(=O)N[C@@H](CC(=O)O)C(=O)N[C@@H](Cc1ccccc1)C(=O)N[C@H](C(=O)N[C@@H](CCC(=O)O)C(=O)N[C@@H](Cc1c[nH]c2ccccc12)C(=O)N[C@@H](CC(C)C)C(=O)N[C@@H](CC(C)C)C(=O)N[C@@H](CCCNC(=N)N)C(=O)O)C(C)C)C(=O)O` [Compound 9, H-HSQGTFTSDYSKYLDS-K(Hexadecanoyl-isoGlu)-AAHDFVEWLLR-OH] (H-HSQGTFTSDYSKYLDSK([γGlu-Palmitoyl])AAHDFVEWLLR-OH), the pEC50 in experiment [1] is 8.99; in experiment [2], 9.43.
